Measured values from ChEMBL document CHEMBL5370531, “Design, synthesis and pharmacological evaluation of 2,3-dihydrobenzofuran IRAK4 inhibitors for the treatment of diffuse large B-cell lymphoma” (Eur J Med Chem, 2023).
Active and inactive are the calls of the source. The calls are words filed in the database; no cut-off is given here.

Columns and labels:
OCI-Ly10 [1] = test: Synergistic antiproliferative activity against human OCILY10 cells harboring MYD88 L265P assessed as inhibition of cell growth at 400 nM incubated for 72 hrs in presence of BTK inhibitor, ibrutinib at 25 nM by CCK-8 assay (reference value: 34.46 %); assay type: functional
OCI-Ly10 [2] = test: Synergistic antiproliferative activity against human OCILY10 cells harboring MYD88 L265P assessed as inhibition of cell growth at 1600 nM incubated for 72 hrs in presence of BTK inhibitor, ibrutinib at 1.6 nM by CCK-8 assay (reference value: 64.69 %); assay type: functional
OCI-Ly10 [3] = test: Induction of apoptosis in human OCILY10 cells at 0.5 uM incubated for 24 hrs by Annexin V-FITC/PI staining based flow cytometry; assay type: functional
OCI-Ly10 [4] = test: Synergistic antiproliferative activity against human OCILY10 cells harboring MYD88 L265P assessed as inhibition of cell growth at 200 nM incubated for 72 hrs in presence of BTK inhibitor, ibrutinib at 1.6 nM by CCK-8 assay (reference value: 26.07 %); assay type: functional
[5] = Cytotoxicity against human GM00637 cells assessed as inhibition of cell proliferation incubated for 72 hrs by CCK-8 assay; assay type: toxicity, cell-based
[6] = biological target: Macrophage colony-stimulating factor 1 receptor (Homo sapiens) (UniProt P07333); test: Inhibition of CSF1R (unknown origin) at 100 nM incubated for 1 hr in presence of ATP by ELISA analysis
Macrophage colony-stimulating factor 1 receptor (Homo sapiens), sequence (P07333 whole entry): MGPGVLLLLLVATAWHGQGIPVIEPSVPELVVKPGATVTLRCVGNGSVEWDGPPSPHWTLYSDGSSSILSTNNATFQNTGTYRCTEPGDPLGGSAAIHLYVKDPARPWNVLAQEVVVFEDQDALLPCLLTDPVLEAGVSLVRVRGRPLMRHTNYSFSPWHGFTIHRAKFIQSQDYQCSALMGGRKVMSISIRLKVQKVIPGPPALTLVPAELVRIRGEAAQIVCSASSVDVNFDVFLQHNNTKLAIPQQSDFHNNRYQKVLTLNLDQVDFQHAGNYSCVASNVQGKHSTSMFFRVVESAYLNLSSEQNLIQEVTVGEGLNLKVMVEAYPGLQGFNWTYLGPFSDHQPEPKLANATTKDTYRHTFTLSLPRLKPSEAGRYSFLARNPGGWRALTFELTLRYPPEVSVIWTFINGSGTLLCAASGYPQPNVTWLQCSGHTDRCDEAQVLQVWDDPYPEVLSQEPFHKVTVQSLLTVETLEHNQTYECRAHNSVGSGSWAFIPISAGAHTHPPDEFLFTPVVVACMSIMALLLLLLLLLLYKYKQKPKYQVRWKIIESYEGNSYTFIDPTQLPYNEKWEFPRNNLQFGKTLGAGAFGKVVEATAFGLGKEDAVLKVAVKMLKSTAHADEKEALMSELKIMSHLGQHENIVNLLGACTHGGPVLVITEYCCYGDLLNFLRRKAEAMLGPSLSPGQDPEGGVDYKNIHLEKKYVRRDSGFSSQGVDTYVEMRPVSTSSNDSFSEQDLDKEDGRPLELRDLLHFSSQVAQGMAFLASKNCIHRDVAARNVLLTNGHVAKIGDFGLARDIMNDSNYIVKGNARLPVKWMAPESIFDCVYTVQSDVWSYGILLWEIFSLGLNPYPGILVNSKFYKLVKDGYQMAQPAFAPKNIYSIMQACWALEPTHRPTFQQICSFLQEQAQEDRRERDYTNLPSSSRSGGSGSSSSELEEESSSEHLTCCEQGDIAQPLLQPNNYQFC

OCI-Ly10 [7] = test: Induction of apoptosis in human OCILY10 cells assessed as early apoptotic cells at 0.1 uM incubated for 24 hrs by Annexin V-FITC/PI staining based flow cytometry (reference value: 10 %); assay type: functional
OCI-Ly10 [8] = test: Cytotoxicity against human OCILY10 cells assessed as inhibition of cell proliferation incubated for 72 hrs by CCK-8 assay; assay type: functional, cell-based; details: OCI-Ly10, 72 h
OCI-Ly10 [9] = test: Induction of apoptosis in human OCILY10 cells at 1 uM incubated for 24 hrs by Annexin V-FITC/PI staining based flow cytometry; assay type: functional
OCI-Ly10 [10] = test: Synergistic antiproliferative activity against human OCILY10 cells harboring MYD88 L265P assessed as inhibition of cell growth at 200 nM incubated for 72 hrs in presence of BTK inhibitor, ibrutinib at 3.1 nM by CCK-8 assay (reference value: 26.07 %); assay type: functional
OCI-Ly10 [11] = test: Induction of apoptosis in human OCILY10 cells assessed as late apoptotic cells at 0.1 uM incubated for 48 hrs by Annexin V-FITC/PI staining based flow cytometry (reference value: 3.54 %); assay type: functional
[12] = biological target: Platelet-derived growth factor receptor beta (Homo sapiens) (UniProt P09619); test: Inhibition of PDGFR-beta (unknown origin) at 100 nM incubated for 1 hr in presence of ATP by ELISA analysis
OCI-Ly10 [13] = test: Induction of apoptosis in human OCILY10 cells at 1 uM incubated for 48 hrs by Annexin V-FITC/PI staining based flow cytometry; assay type: functional
OCI-Ly10 [14] = test: Synergistic antiproliferative activity against human OCILY10 cells harboring MYD88 L265P assessed as inhibition of cell growth at 1600 nM incubated for 72 hrs in presence of BTK inhibitor, ibrutinib at 12.5 nM by CCK-8 assay (reference value: 64.69 %); assay type: functional
OCI-Ly10 [15] = test: Induction of apoptosis in human OCILY10 cells assessed as late apoptotic cells at 1 uM incubated for 24 hrs by Annexin V-FITC/PI staining based flow cytometry (reference value: 3.71 %); assay type: functional
OCI-Ly10 [16] = test: Induction of apoptosis in human OCILY10 cells assessed as late apoptotic cells at 0.5 uM incubated for 24 hrs by Annexin V-FITC/PI staining based flow cytometry (reference value: 3.71 %); assay type: functional
OCI-Ly10 [17] = test: Induction of apoptosis in human OCILY10 cells assessed as late apoptotic cells at 0.2 uM incubated for 24 hrs by Annexin V-FITC/PI staining based flow cytometry (reference value: 3.71 %); assay type: functional
[18] = biological target: Receptor-type tyrosine-protein kinase FLT3 (Homo sapiens) (UniProt P36888); test: Inhibition of FLT3 (unknown origin) at 100 nM incubated for 1 hr in presence of ATP by ELISA analysis relative to control
Receptor-type tyrosine-protein kinase FLT3 (Homo sapiens), sequence (P36888 whole entry): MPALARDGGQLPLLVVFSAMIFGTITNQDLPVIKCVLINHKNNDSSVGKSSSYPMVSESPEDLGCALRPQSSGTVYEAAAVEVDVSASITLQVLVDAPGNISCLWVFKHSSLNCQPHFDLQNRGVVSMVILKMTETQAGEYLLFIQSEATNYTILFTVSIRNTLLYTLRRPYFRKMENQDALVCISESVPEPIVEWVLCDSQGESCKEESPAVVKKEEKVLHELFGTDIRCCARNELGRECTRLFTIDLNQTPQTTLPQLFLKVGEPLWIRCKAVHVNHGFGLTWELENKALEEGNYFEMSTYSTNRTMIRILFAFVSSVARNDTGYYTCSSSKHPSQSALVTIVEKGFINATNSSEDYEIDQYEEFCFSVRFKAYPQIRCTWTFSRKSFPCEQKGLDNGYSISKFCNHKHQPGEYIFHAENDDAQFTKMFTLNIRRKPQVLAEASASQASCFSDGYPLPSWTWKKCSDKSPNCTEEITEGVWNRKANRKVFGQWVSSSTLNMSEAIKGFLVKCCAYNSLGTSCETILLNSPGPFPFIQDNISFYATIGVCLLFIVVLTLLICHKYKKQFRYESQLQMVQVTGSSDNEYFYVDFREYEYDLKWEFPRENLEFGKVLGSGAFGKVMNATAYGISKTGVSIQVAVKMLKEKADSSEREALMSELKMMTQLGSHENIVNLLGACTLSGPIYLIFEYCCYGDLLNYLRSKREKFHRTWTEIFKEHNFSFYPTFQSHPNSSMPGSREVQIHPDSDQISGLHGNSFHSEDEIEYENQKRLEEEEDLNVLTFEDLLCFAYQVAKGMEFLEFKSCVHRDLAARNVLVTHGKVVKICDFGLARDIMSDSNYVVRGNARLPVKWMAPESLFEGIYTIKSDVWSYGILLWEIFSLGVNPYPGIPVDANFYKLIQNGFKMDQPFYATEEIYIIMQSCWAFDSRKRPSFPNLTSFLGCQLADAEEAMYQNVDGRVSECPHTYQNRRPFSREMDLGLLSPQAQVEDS

OCI-Ly10 [19] = test: Synergistic antiproliferative activity against human OCILY10 cells harboring MYD88 L265P assessed as inhibition of cell growth at 800 nM incubated for 72 hrs in presence of BTK inhibitor, ibrutinib at 3.1 nM by CCK-8 assay (reference value: 54.76 %); assay type: functional
OCI-Ly10 [20] = test: Induction of apoptosis in human OCILY10 cells assessed as late apoptotic cells at 1 uM incubated for 48 hrs by Annexin V-FITC/PI staining based flow cytometry (reference value: 3.54 %); assay type: functional
OCI-Ly10 [21] = test: Induction of apoptosis in human OCILY10 cells harboring MYD88 L265P assessed as late apoptotic cells at 0.2 uM incubated for 48 hrs in presence of BTK inhibitor, ibrutinib by Annexin V-FITC/PI staining based flow cytometry (reference value: 6.59 %); assay type: functional
[22] = biological target: Fibroblast growth factor receptor 2 (Homo sapiens) (UniProt P21802); test: Inhibition of FGFR2 (unknown origin) at 100 nM incubated for 1 hr in presence of ATP by ELISA analysis
Fibroblast growth factor receptor 2 (Homo sapiens), sequence (P21802 22-821 limits assumed): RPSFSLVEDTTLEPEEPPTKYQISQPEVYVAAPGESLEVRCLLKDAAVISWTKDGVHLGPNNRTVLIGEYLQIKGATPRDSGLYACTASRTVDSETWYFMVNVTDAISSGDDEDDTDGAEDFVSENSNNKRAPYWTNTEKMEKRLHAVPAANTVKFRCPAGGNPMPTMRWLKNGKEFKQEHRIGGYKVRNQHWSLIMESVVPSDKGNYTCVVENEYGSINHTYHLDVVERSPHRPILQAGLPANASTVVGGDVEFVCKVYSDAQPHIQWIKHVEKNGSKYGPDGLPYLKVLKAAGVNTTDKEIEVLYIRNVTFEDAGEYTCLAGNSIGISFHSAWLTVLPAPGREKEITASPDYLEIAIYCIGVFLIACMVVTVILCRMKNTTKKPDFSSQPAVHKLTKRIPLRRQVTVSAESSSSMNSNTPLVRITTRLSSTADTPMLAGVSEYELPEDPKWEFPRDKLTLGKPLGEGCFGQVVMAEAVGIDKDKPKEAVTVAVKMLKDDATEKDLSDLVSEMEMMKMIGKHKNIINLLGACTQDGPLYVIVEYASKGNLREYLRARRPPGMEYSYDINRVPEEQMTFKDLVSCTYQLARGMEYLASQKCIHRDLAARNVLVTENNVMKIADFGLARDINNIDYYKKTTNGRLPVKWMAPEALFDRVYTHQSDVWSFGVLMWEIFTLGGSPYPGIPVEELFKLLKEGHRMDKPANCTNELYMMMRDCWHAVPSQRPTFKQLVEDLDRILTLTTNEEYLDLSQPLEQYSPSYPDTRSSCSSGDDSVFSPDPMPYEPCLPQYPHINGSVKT

OCI-Ly10 [23] = test: Induction of apoptosis in human OCILY10 cells assessed as upregulation of caspase-3 cleavage at 0.1 to 1 uM incubated for 48 hrs by immunoblotting analysis; assay type: functional, cell-based; details: dose 0.1-1 µM
OCI-Ly10 [24] = test: Induction of apoptosis in human OCILY10 cells harboring MYD88 L265P assessed as early apoptotic cells at 0.2 uM incubated for 48 hrs in presence of BTK inhibitor, ibrutinib by Annexin V-FITC/PI staining based flow cytometry (reference value: 6.76 %); assay type: functional
[25] = biological target: Focal adhesion kinase 1 (Homo sapiens) (UniProt Q05397); test: Inhibition of FAK (unknown origin) at 100 nM incubated for 1 hr in presence of ATP by ELISA analysis
[26] = biological target: Fibroblast growth factor receptor 4 (Homo sapiens) (UniProt P22455); test: Inhibition of FGFR4 (unknown origin) at 100 nM incubated for 1 hr in presence of ATP by ELISA analysis
Fibroblast growth factor receptor 4 (Homo sapiens), sequence (P22455 22-802 limits assumed): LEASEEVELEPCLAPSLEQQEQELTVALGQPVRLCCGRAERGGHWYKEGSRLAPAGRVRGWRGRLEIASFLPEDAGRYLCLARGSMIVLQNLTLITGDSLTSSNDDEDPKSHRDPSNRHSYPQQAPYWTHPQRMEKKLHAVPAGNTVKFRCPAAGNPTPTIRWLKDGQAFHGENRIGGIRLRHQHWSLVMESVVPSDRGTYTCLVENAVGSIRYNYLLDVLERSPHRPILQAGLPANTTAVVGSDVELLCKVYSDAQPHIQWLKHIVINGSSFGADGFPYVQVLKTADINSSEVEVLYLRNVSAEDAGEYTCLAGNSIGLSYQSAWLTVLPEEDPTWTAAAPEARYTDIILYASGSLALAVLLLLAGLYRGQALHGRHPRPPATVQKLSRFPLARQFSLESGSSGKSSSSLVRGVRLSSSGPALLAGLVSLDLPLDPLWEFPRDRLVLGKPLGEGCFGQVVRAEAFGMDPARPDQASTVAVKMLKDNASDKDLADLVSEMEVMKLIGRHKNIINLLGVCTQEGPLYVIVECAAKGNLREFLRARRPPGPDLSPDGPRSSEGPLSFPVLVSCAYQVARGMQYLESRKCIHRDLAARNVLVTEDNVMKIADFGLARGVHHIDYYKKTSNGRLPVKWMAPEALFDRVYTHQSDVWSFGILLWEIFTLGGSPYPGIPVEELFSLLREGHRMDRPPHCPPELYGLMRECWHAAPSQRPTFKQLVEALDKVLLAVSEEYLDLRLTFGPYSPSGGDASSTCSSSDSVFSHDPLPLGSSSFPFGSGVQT

[27] = biological target: Vascular endothelial growth factor receptor 3 (Homo sapiens) (UniProt P35916); test: Inhibition of VEGFR3 (unknown origin) at 100 nM incubated for 1 hr in presence of ATP by ELISA analysis
Vascular endothelial growth factor receptor 3 (Homo sapiens), sequence (P35916 whole entry): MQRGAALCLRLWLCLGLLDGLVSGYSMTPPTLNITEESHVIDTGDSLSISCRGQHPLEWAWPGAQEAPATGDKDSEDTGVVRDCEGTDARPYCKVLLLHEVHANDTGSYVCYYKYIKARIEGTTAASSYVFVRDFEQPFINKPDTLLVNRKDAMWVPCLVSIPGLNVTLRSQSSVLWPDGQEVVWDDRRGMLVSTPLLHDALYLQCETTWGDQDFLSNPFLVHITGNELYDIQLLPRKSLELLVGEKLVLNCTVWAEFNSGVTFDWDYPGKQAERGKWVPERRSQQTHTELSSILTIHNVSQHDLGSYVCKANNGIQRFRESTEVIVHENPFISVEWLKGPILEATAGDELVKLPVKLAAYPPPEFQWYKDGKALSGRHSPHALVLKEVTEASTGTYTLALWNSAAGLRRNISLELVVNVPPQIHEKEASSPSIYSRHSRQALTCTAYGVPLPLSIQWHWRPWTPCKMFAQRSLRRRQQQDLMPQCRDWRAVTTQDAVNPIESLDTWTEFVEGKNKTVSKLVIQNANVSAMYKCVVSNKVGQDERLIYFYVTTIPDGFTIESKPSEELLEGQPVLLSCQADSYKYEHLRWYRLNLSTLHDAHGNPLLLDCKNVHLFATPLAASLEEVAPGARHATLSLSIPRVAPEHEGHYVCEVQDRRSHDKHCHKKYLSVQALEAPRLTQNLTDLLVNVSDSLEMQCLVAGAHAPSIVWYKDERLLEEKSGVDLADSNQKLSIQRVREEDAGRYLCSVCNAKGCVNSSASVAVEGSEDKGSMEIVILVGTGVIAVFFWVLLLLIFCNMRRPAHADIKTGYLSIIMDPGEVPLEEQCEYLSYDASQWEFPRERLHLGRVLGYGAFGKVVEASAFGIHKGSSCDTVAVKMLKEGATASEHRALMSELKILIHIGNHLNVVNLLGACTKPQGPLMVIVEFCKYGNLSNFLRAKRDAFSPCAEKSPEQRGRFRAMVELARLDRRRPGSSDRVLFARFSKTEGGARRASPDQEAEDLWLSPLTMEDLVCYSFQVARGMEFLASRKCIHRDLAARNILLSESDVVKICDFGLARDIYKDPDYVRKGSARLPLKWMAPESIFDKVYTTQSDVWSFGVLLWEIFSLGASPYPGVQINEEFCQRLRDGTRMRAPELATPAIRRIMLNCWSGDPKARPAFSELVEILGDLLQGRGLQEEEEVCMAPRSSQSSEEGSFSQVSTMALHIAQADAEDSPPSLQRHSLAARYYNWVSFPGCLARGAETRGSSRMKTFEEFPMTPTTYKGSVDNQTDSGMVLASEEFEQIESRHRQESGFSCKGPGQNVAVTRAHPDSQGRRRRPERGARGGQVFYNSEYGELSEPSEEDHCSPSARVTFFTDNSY

OCI-Ly10 [28] = test: Synergistic antiproliferative activity against human OCILY10 cells harboring MYD88 L265P assessed as inhibition of cell growth at 1600 nM incubated for 72 hrs in presence of BTK inhibitor, ibrutinib at 25 nM by CCK-8 assay (reference value: 64.69 %); assay type: functional
OCI-Ly10 [29] = test: Induction of apoptosis in human OCILY10 cells assessed as early apoptotic cells at 0.5 uM incubated for 48 hrs by Annexin V-FITC/PI staining based flow cytometry (reference value: 5.4 %); assay type: functional
OCI-Ly10 [30] = test: Induction of apoptosis in human OCILY10 cells harboring MYD88 L265P assessed as upregulation of caspase-3 cleavage at 0.2 uM in presence of BTK inhibitor, ibrutinib by immunoblotting analysis; assay type: functional, cell-based

## Cn1cc(-c2cc3c(cc2NC(=O)c2coc(-c4ccnc(N)c4)n2)CC(C)(C)O3)cn1
OCI-Ly10 [1]
  inhibition at 0.4 µM: 83.2%
OCI-Ly10 [2]
  inhibition at 1.6 µM: 70.6%
OCI-Ly10 [3]
  Activity: 48.3%
OCI-Ly10 [4]
  inhibition at 0.2 µM: 26.9%
[5]
  IC50 at 72 h: 1520 nM
[6]
  inhibition: inactive
OCI-Ly10 [7]
  Activity: 9.32%
OCI-Ly10 [8]
  IC50: 248 nM
OCI-Ly10 [9]
  Activity: 66.8%
OCI-Ly10 [10]
  inhibition at 0.2 µM: 29.5%
OCI-Ly10 [11]
  Activity: 7.93%
[12]
  inhibition: inactive
OCI-Ly10 [13]
  Activity: 92.3%
OCI-Ly10 [14]
  inhibition at 1.6 µM: 88.7%
OCI-Ly10 [15]
  Activity: 33.7%
OCI-Ly10 [16]
  Activity: 25.2%
OCI-Ly10 [17]
  Activity: 11.8%
[18]
  inhibition: > 50%
OCI-Ly10 [19]
  inhibition at 0.8 µM: 64.6%
OCI-Ly10 [20]
  Activity: 37.7%
OCI-Ly10 [21]
  Activity: 33.2%
[22]
  inhibition: inactive
OCI-Ly10 [23]
  Activity: Active
OCI-Ly10 [24]
  Activity: 19.6%
[25]
  inhibition: inactive
[26]
  inhibition: inactive
[27]
  inhibition: inactive
OCI-Ly10 [28]
  inhibition at 1.6 µM: 89.6%
OCI-Ly10 [29]
  Activity: 45.7%
OCI-Ly10 [30]
  Activity: Active
